Assay results taken from ChEMBL document CHEMBL4811314, “Synthesis, biochemical, and biological evaluation of C2 linkage derivatives of amino sugars, inhibitors of glucokinase from Trypanosoma cruzi” (Bioorg Med Chem Lett, 2021).
pIC50, pKi: −log10 of the molar value.

Legend:
Trypanosoma cruzi [1] = assay: Antitrypanosomal activity against intracellular Trypanosoma cruzi Tulahuen […] infected in mouse NIH/3T3 cells assessed as parasite growth inhibition; assay type: functional, organism-based; conditions: NIH3T3
[2] = Inhibition of Trypanosoma cruzi glucokinase
Saccharomyces cerevisiae = assay: Inhibition of Saccharomyces cerevisiae G6PDH at 20 uM relative to control
Hexokinase-4 = target: T1, Hexokinase-4 (Homo sapiens, UniProt P35557); assay: Inhibition of human hexokinase-4 at 20 uM relative to control
T1 sequence (P35557 whole entry): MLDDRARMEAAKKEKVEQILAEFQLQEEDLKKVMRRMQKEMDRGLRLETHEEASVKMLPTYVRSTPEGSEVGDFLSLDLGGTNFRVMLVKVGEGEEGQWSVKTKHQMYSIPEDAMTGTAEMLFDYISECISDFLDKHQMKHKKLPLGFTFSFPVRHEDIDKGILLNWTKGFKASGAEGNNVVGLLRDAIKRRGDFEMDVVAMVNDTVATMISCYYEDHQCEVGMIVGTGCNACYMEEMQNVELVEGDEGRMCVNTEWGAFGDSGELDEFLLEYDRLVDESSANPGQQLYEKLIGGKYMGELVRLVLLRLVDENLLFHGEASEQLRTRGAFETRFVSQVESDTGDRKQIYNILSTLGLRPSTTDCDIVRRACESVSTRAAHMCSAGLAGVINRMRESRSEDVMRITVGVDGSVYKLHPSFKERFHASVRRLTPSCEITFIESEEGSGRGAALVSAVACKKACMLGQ

Trypanosoma cruzi [3] = assay: Antitrypanosomal activity against Trypanosoma cruzi Tulahuen amastigotes infected in mouse NIH/3T3 cells assessed as parasite growth inhibition incubated for 4 days in glucose rich DMEM medium; assay type: functional, organism-based; conditions: NIH3T3, 96 h
[4] = Inhibition of His6-tagged Trypanosoma cruzi glucokinase using D-glucose and ATP as substrates
Trypanosoma cruzi [5] = assay: Competitive inhibition of Trypanosoma cruzi glucokinase assessed as Vmax using varying levels of D-glucose as substrate in presence of ATP by Lineweaver-Burk plot analysis
[6] = Competitive inhibition of Trypanosoma cruzi glucokinase using D-glucose as substrate in presence of ATP by Lineweaver-Burk plot analysis
Trypanosoma cruzi [7] = assay: Competitive inhibition of Trypanosoma cruzi glucokinase assessed as Km using varying levels of D-glucose as substrate in presence of ATP by Lineweaver-Burk plot analysis

Structure (SMILES)	pIC50 (Trypanosoma cruzi [1])	pKi [2]	inhibition (Saccharomyces cerevisiae) [%]	inhibition at 20 µM (Hexokinase-4) [%]	pIC50 (Trypanosoma cruzi [3])	pKi [4]	Vmax (Trypanosoma cruzi [5])	pKi [6]	Km (Trypanosoma cruzi [7]) [µM]
C[C@@H]1[C@H](O)[C@@H](C)/C=C/C=C/C=C/C=C/C=C/C=C/C=C/[C@H](O[C@@H]2O[C@H](C)[C@@H](O)[C@H](N)[C@@H]2O)C[C@@H]2O[C@](O)(C[C@@H](O)C[C@@H](O)[C@H](O)CC[C@@H](O)C[C@@H](O)CC(=O)O[C@H]1C)C[C@H](O)[C@H]2C(=O)O [AMPHOTERICIN B]	5.73								
O=C(N[C@@H]1C(O)O[C@H](CO)[C@@H](O)[C@@H]1O)c1ccc(CCl)cc1 (stereo partly specified)	4.42	< 3.30	0	28.1					
O=C(N[C@@H]1C(O)O[C@H](CO)[C@@H](O)[C@@H]1O)c1ccoc1 (stereo partly specified)	4.17	< 3.30	0	31.6					
O=C(N[C@@H]1C(O)O[C@H](CO)[C@@H](O)[C@@H]1O)c1cc2ccccc2o1 (stereo partly specified)	4.37	< 3.30	0	12.4					
O=C(N[C@@H]1C(O)O[C@H](CO)[C@@H](O)[C@@H]1O)c1cccc(Br)c1 (stereo partly specified)	4.42	3.49	0	27					
O=C(N[C@H]1C(O)O[C@H](CO)[C@H](O)[C@@H]1O)c1ccc(CCl)cc1 (stereo partly specified)	4.42	< 3.30	0	8.3					
O=C(N[C@H]1C(O)O[C@H](CO)[C@H](O)[C@@H]1O)c1ccoc1 (stereo partly specified)	4.44	< 3.30	0	47.2					
Cc1ccc(C(=O)N[C@@H]2C(O)O[C@H](CO)[C@@H](O)[C@@H]2O)o1 (stereo partly specified)	< 4.10	3.32	0	48.8					
O=C(N[C@H]1C(O)O[C@H](CO)[C@@H](O)[C@@H]1O)c1ccccc1 (stereo partly specified)			0.5	39.2	4.79	4.49			
O=C(N[C@H]1C(O)O[C@H](CO)[C@@H](O)[C@@H]1O)c1ccc(CCl)cc1 (stereo partly specified)	4.28	< 3.30	0	35.8					
O=C(N[C@H]1C(O)O[C@H](CO)[C@@H](O)[C@@H]1O)OCc1ccccc1 (stereo partly specified)			0	2	4.31	6.15			
O=C(N[C@H]1C(O)O[C@H](CO)[C@@H](O)[C@@H]1O)c1ccoc1 (stereo partly specified)	4.30	4.82	0	41.2			6.3 10^-5M/min	4.82	840
O=C(N[C@@H]1C(O)O[C@H](CO)[C@@H](O)[C@@H]1O)c1ccccc1 (stereo partly specified)	4.36	< 3.30	0	55.5					
O=C(N[C@H]1C(O)O[C@H](CO)[C@@H](O)[C@@H]1O)c1cccc(Br)c1 (stereo partly specified)	4.18	4.74	0	31.2					
O=C(N[C@H]1C(O)O[C@H](CO)[C@@H](O)[C@@H]1O)c1cc2ccccc2o1 (stereo partly specified)	4.56	3.97	0	25.2			8.1 10^-5M/min	3.97	890
O=C(N[C@H]1C(O)O[C@H](CO)[C@H](O)[C@@H]1O)c1ccccc1 (stereo partly specified)	4.26	< 3.30	0	37.8					
O=C(Cn1ccnc1[N+](=O)[O-])NCc1ccccc1 [BENZNIDAZOLE]					5.95				
O=C(N[C@H]1C(O)O[C@H](CO)[C@H](O)[C@@H]1O)c1cccc(Br)c1 (stereo partly specified)	4.70	< 3.30	0	29.8					
O=C(N[C@H]1C(O)O[C@H](CO)[C@H](O)[C@@H]1O)c1cc2ccccc2o1 (stereo partly specified)	4.18	< 3.30	0	36.5					
